{"source": "paper PMC9694334", "about": "“Synthesis and Biological Evaluation of a Fused Structure of Indolizine and Pyrrolo[1,2-c]pyrimidine: Identification of Its Potent Anticancer Activity against Liver Cancer Cells” (Pharmaceuticals, 2022)", "key": {"cleaved PARP": {"tested_on": "cleaved PARP", "experiment": "Western blot analysis of cleaved PARP in Huh7 cells", "type": "cell-based", "settings": "24 h, Figure 4F,H", "procedure": "For Western blot analysis, HepG2 and Huh7 cells were lysed with RIPA buffer (50 mM Tris-HCl, PH 7.4, 1% Nonidet P-40, 0.25% sodium deoxycholate, 150 mM NaCl, 1 mM EDTA, 1 mM Na3VO4, and protease inhibitor). Lysed samples were centrifuged at 13,000 RPM for 20 min at 4 °C to remove the cell debris, and equal amounts (60 μg protein/lane) of supernatant protein were divided by 4–12% Tris Glycine Precast Gel (KOMA BIOTECH, Seoul, Korea). Then, PVDF membranes (Millipore, Billerica, MA, USA) were used to transfer the separated proteins. Membrane blocking was performed by Tris-buffered saline with 0.1% Tween 20 (TBST) containing 5% bovine serum albumin (BSA) at room temperature for 50 min. The membranes were incubated with primary antibodies overnight at 4 °C with the indicated primary antibodies: anti-cleaved PARP (BD Biosciences) and anti-β-actin (Santa Cruz Biotechnology, Dallas, TX, USA). […] After 1 h, membranes were detected by using ECL Plus Western blotting detection system (GE Healthcare, Piscataway, NJ, USA).\nFigure 4 Effect of 5r on activity of caspase-3 and cleavage of PARP in HepG2 and Huh7 cells. […] (E,F) Cells were cultured with 5r at the indicated concentrations for 24 h, and expression level of PARP, cleaved-PARP and β-actin were measured by Western blot analysis. […]"}, "HepG2 cells [1]": {"tested_on": "HepG2 cells", "experiment": "Flow cytometry cell cycle analysis (propidium iodide) in HepG2 cells", "type": "cell-based", "settings": "3 µM 5r for 24 h", "procedure": "HepG2 cells were grown to approximately 40% confluence in a 6-well plate and then 5r was treated for 24 h. After 24 h, HepG2 cells were washed out twice with PBS and centrifuged at 1000 RPM for 2 min at room temperature. The cells were stained with propidium iodide for 15 min and then cell cycle phases were measured by using FACS (Beckman Coulter, Fullerton, CA, USA).\nFigure 5 Effect of 5r on cell cycle in HepG2 cells. (A,B) HepG2 cells were treated with 3 µM 5r for 24 h and then cell cycle phases were measured by propidium iodide staining, followed by flow cytometry analysis."}, "HEK293T cells": {"tested_on": "HEK293T cells", "experiment": "Cell viability assay (MTS) in HEK293T cells", "type": "cell-based", "settings": "72 h, Figure 2H", "procedure": "(§1) Cell viability assay was conducted using Cell Titer 96® AQueous One Solution Cell proliferation Assay kit (Promega, Madison, WI, USA). Five cancer cells and HaCaT cells were plated in 96-well microplates with growth medium for 24 h. When cell confluency reached ~30%, cells were treated with DMSO (vehicle) and test compounds. The medium and test compounds were replaced every 24 h. To measure cell viability, the cells were incubated with MTS solution for 1 h. The absorbance was measured by using Infinite M200 microplate reader (Tecan, Männedorf, Switzerland) at 490 nm.\n(§2) Figure 2 Effect of 5r on cell viability in HepG2, Huh7, AGS, H1299, A549, HaCaT, NIH3T3, and HEK293T cells. (A–H) HepG2, Huh7, AGS, H1299, A549, HaCaT, NIH3T3, and HEK293T cells were cultured with 5r at the indicated concentrations for 72 h, and medium was replaced every 24 h with freshly added 5r. Cell viability was measured by MTS analysis (mean ± S.D., n = 5). * p < 0.05, ** p < 0.01, *** p < 0.001."}, "HaCaT cells": {"tested_on": "HaCaT cells", "experiment": "Cell viability assay (MTS) in HaCaT cells", "type": "cell-based, human", "procedure": "(§3) HepG2, Huh7, H1299, HT29, AGS and A549 cells were purchased from the Korean Cell Line Bank (Seoul, Korea) and HaCaT cells were obtained from Prof. Sohee Kwon (Yonsei University, Korea). Liver cancer cells (HepG2), human keratinocyte cells (HaCaT), and lung cancer cells (A549) were grown in DMEM high-glucose medium, liver cancer cells (Huh7) and non-small cell lung cancer cells (H1299) were grown in RPMI 1640, and gastric cancer cells (AGS) were grown in Coon’s modified F12 medium. All media were supplemented with 10% FBS, 100 Units/mL penicillin, and 100 μg/mL streptomycin. All cells were incubated at 37 °C, 5% CO2 and 95% humidity.\nas §1, §2"}, "HepG2 cells [2]": {"tested_on": "HepG2 cells", "experiment": "Cell viability assay (MTS) in HepG2 cells", "type": "cell-based", "settings": "Homo sapiens, MTS, mean, n = 5, 72 h for 5r (Figure 2)", "procedure": "as §3, §1, §2"}, "HepG2 cells [3]": {"tested_on": "HepG2 cells", "experiment": "In vitro wound-healing assay in HepG2 cells", "type": "cell-based", "settings": "Figure 3", "procedure": "The suppressive effect of 5r on cell migration was assessed through in vitro wound-healing assay. HepG2 and Huh7 cells were grown to approximately 100% confluence to form a monolayer in a 96-well microplate. Wounds were formed through 96-well wound maker (Essen BioScience, Ann Arbor, MI, USA). Then, growth medium was removed and washed out twice with phosphate-buffered saline (PBS) and incubated with 200 μL of DMEM and RPMI 1640 medium containing 5r or vehicle (DMSO). Images of the wound area were taken by using IncuCyte ZOOM (Essen BioScience, Ann Arbor MI, USA), and the percentage of wound closure was measured by using IncuCyte software.\nFigure 3 Inhibitory effect of 5r on cell migration in HepG2 and Huh7 cells. (A,B) In vitro wound-healing assay was performed in HepG2 and Huh7 cells (mean ± S.D., n = 3). HepG2 and Huh7 cells were treated with the indicated concentrations of 5r, and time-lapse images were acquired every 2 h after wound infliction. (C,D) Representative images were taken at 0, 48, or 72 h following administration of 5r at the indicated concentrations."}, "AGS cells": {"tested_on": "AGS cells", "experiment": "Cell viability assay (MTS) in AGS cells", "type": "cell-based", "settings": "72 h, MTS, Figure 2C", "procedure": "as §3, §1, §2"}}}
{"smiles": "N#Cc1c2c3cccn3c(-c3ccccc3O)nc2n2ccccc12", "note": "[Compound 5r, 5-(2-Hydroxyphenyl)pyrrolo[1′,2′:1,6]pyrimido[5,4-b]indolizine-12-carbonitrile]", "values": [{"measurement": "Expression level of cleaved PARP in Huh7 cells", "setting": "cleaved PARP", "value": "increased the expression level of cleaved PARP in a dose-dependent manner"}, {"measurement": "Ratio in the G2/M phase", "setting": "HepG2 cells [1]", "value": "did not affect"}, {"measurement": "Sub-G1 (apoptotic peak) phase ratio", "setting": "HepG2 cells [1]; control 24.1%", "value": 56.9, "unit": "%"}, {"measurement": "G0/G1 phase ratio", "setting": "HepG2 cells [1]; control 64.6%", "value": 29.3, "unit": "%"}, {"measurement": "Effect on cell viability in non-cancerous HEK293T cells", "setting": "HEK293T cells", "value": "weakly decreased cell viability"}, {"measurement": "Effect on cell viability in non-cancerous HaCaT cells", "setting": "HaCaT cells; 72 h, Figure 2F", "value": "weakly decreased cell viability"}, {"measurement": "IC50", "setting": "HaCaT cells; Homo sapiens, mean, n = 5", "value": 6.91, "unit": "µM"}, {"measurement": "IC50", "setting": "HepG2 cells [2]", "value": 0.22, "unit": "µM"}, {"measurement": "Effect on cell migration (wound closure) in HepG2 cells", "setting": "HepG2 cells [3]", "value": "significantly inhibited cell migration in a dose-dependent manner"}, {"measurement": "Effect on cell viability in AGS cells", "setting": "AGS cells", "value": "weak effect"}]}
